Source: patent US10770169B2, “Method of providing a treatment to a subject based on a dynamic pathway map” (THE REGENTS OF THE UNIVERSITY OF CALIFORNIA, priority 2010, dated 2020)
Read-outs that look alike come from different tables or passages of the source.

Columns and labels:
[1] = system: panel of 55 breast cancer cell lines; assay: Cell growth inhibition assay (Cell Titer Glo, 72 h, 9 doses; GI50, TGI, LC50); assay type: cell-based, human; settings: Homo sapiens, read-out: GI50 (converted)
[2] = system: luminal, basal, claudin-low and ERBB2AMP breast cancer cell lines; assay: Associations of clinically relevant subtypes and response (non-parametric ANOVA or t-test on GI50 ranks); assay type: cell-based, human; settings: Table 6; most sensitive subtype, FDR p<0.20
Description: A central premise of this study is that associations between responses and molecular subtypes observed in preclinical cell line analyses will be recapitulated in the clinic in instances where the predictive molecular features in the cell lines are mirrored in human tumors. We established response-subtype associations by using non-parametric ANOVAs to compare […] values across transcriptional and genomics subtypes.
Differences between GI50s of the groups were compared with a non-parametric ANOVA or t-test, as appropriate, on the ranks. We combined the p-values for the three sets of tests and used false discovery rate (FDR) to correct for multiple testing. For the three-sample test, we performed a post-hoc analysis on the compounds with a significant class effect by comparing each group to all others to determine which group was most sensitive. The p-values for the post-hoc test were FDR-corrected together. In all cases, FDR p<0.20 was deemed significant. […] Analyses were performed in R.

SMILES: CS(=O)(=O)CCNCc1ccc(-c2ccc3ncnc(Nc4ccc(OCc5cccc(F)c5)c(Cl)c4)c3c2)o1 [Lapatinib]
- GI50 ([1]; AU565, cell line AU565, censored GI50 values): 0.398 µM
- GI50 ([1]; AU565, cell line AU565): 0.398 µM
- GI50 ([1]; BT-20, cell line BT20): 16.6 µM
- GI50 ([1]; BT-474, cell line BT474, censored GI50 values): 0.398 µM
- GI50 ([1]; BT-474, cell line BT474): 0.398 µM
- GI50 ([1]; BT-483, cell line BT483): 16.6 µM
- GI50 ([1]; BT-549, cell line BT549): 16.6 µM
- GI50 ([1]; CAMA-1, cell line CAMA1): 16.6 µM
- GI50 ([1]; HCC38, cell line HCC38): 16.6 µM
- GI50 ([1]; HCC70, cell line HCC70): 11 µM
- GI50 ([1]; HCC202, cell line HCC202, censored GI50 values): 0.759 µM
- GI50 ([1]; HCC202, cell line HCC202): 0.759 µM
- GI50 ([1]; HCC1143, cell line HCC1143): 16.6 µM
- GI50 ([1]; HCC1187, cell line HCC1187): 16.6 µM
- GI50 ([1]; HCC1395, cell line HCC1395): 16.6 µM
- GI50 ([1]; HCC1419, cell line HCC1419, censored GI50 values): 0.269 µM
- GI50 ([1]; HCC1419, cell line HCC1419): 0.269 µM
- GI50 ([1]; HCC1428, cell line HCC1428): 16.6 µM
- GI50 ([1]; HCC1500, cell line HCC1500): 16.6 µM
- GI50 ([1]; HCC1806, cell line HCC1806): 16.6 µM
- GI50 ([1]; HCC1937, cell line HCC1937): 16.6 µM
- GI50 ([1]; HCC1954, cell line HCC1954, censored GI50 values): 2.75 µM
- GI50 ([1]; HCC1954, cell line HCC1954): 2.75 µM
- GI50 ([1]; MCF7, cell line MCF7): 16.6 µM
- GI50 ([1]; MDA-MB-157, cell line MDAMB157): 16.6 µM
- GI50 ([1]; MDA-MB-175-VII, cell line MDAMB175VII, censored GI50 values): 0.933 µM
- GI50 ([1]; MDA-MB-231, cell line MDAMB231): 16.6 µM
- GI50 ([1]; MDA-MB-361, cell line MDAMB361, censored GI50 values): 8.91 µM
- GI50 ([1]; MDA-MB-361, cell line MDAMB361): 8.91 µM
- GI50 ([1]; MDA-MB-436, cell line MDAMB436): 16.6 µM
- GI50 ([1]; MDA-MB-453, cell line MDAMB453, censored GI50 values): 8.91 µM
- GI50 ([1]; MDA-MB-453, cell line MDAMB453): 8.91 µM
- GI50 ([1]; MDA-MB-468, cell line MDAMB468): 16.6 µM
- GI50 ([1]; SK-BR-3, cell line SKBR3, censored GI50 values): 0.513 µM
- GI50 ([1]; SK-BR-3, cell line SKBR3): 0.513 µM
- GI50 ([1]; SUM52PE, cell line SUM52PE): 16.6 µM
- GI50 ([1]; SUM225CWN, cell line SUM225CWN, censored GI50 values): 0.692 µM
- GI50 ([1]; SUM225CWN, cell line SUM225CWN): 0.692 µM
- GI50 ([1]; T47D, cell line T47D): 16.6 µM
- GI50 ([1]; UACC-812, cell line UACC812, censored GI50 values): 0.457 µM
- GI50 ([1]; UACC-812, cell line UACC812): 0.457 µM
- GI50 ([1]; UACC-893, cell line UACC893, censored GI50 values): 1.82 µM
- GI50 ([1]; UACC-893, cell line UACC893): 1.82 µM
- GI50 ([1]; ZR-75-1, cell line ZR751): 16.6 µM
- GI50 ([1]; ZR-75B, cell line ZR75B): 16.6 µM
- GI50 ([1]; cell line 600MPE): 16.6 µM
- GI50 ([1]; cell line HCC2185, censored GI50 values): 3.8 µM
- GI50 ([1]; cell line HCC2185): 3.8 µM
- GI50 ([1]; cell line HCC3153): 16.6 µM
- GI50 ([1]; cell line MDAMB175V): 0.933 µM
- GI50 ([1]; cell line SUM1315MO): 15.5 µM
- Subtype specificity [2]: Luminal/ERBB2AMP
